Results reported in ChEMBL document CHEMBL1201862, “PubChem BioAssay data set” (2004).
The source made the active and inactive calls.

Columns and labels:
[1] = Luminescence-based cell-based high throughput dose response assay to identify activators of the DAF-12 from the parasite S. stercoralis (ssDAF-12).; assay type: functional
[2] = target: T1, Oxysterols receptor LXR-beta (Homo sapiens, UniProt P55055); experiment: LXR agonists, Gal4 luciferase reporter, dose response, counter-screen for ssDAF-12 agonist project, cell-based, luminescence, HEK293, S. stercoralis campaign (AID 720737); assay type: functional; conditions: read-out: IC50 (the source's name)
T1 sequence (P55055 whole entry): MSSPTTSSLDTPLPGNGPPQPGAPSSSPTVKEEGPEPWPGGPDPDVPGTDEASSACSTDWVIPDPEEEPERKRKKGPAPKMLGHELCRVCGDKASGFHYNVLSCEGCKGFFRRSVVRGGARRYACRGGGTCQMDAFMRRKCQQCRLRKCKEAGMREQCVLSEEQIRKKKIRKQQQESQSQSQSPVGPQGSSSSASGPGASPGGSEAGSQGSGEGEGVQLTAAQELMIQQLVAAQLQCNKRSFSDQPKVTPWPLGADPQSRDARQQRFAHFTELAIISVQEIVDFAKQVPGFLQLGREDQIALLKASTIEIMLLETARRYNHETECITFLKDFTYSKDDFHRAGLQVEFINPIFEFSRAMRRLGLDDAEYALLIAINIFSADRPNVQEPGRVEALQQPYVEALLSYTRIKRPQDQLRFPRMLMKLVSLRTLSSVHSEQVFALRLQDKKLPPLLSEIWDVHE

[3] = target: Eukaryotic translation initiation factor 4E (Mus musculus, UniProt P63073); experiment: eIF4E–eIF4G protein interaction inhibitors, dose response, biochemical, TR-FRET (AID 855); assay type: functional;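 note: potency for disrupting eIF4E binding to eIF4GI seen as loss of FRET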
Chain of Eukaryotic translation initiation factor 4E (P63073 whole entry): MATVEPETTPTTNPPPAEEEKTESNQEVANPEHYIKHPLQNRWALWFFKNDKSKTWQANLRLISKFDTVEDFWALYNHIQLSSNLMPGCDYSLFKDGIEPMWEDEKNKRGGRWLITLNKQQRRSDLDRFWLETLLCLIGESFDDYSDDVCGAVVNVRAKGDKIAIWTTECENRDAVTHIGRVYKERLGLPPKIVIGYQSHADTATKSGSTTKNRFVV

[4] = target: Induced myeloid leukemia cell differentiation protein Mcl-1 (Homo sapiens, UniProt Q07820); assay type: functional
Chain of Induced myeloid leukemia cell differentiation protein Mcl-1 (Q07820 whole entry): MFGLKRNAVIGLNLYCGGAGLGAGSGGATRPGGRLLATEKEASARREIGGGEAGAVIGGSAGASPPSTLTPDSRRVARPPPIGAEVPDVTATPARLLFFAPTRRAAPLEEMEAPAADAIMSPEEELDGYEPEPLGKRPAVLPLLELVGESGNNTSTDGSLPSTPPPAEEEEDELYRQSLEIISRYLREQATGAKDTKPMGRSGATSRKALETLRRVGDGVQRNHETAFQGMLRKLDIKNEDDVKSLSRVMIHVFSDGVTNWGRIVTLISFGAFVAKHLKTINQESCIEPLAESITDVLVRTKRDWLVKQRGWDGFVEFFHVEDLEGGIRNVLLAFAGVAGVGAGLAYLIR

[5] = target: Nonstructural protein 1 (Influenza A virus, UniProt Q194T2); assay type: functional, Influenza A virus (A/California/07/2009(H1N1))
Chain of Nonstructural protein 1 (Q194T2 whole entry): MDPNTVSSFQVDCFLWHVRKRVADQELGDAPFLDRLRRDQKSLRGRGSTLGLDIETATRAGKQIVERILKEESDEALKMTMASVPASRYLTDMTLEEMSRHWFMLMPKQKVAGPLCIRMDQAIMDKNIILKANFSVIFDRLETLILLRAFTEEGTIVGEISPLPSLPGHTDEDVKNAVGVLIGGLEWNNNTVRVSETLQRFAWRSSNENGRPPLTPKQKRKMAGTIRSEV

[6] = target: T2, Rac GTPase-activating protein 1 (Homo sapiens, UniProt Q9H0H5); experiment: MgcRacGAP GTPase-activating activity inhibitors, confirmation, biochemical, ADP Hunter fluorescence, primary and confirmatory (AID 624330); assay type: functional
T2 sequence (Q9H0H5 whole entry): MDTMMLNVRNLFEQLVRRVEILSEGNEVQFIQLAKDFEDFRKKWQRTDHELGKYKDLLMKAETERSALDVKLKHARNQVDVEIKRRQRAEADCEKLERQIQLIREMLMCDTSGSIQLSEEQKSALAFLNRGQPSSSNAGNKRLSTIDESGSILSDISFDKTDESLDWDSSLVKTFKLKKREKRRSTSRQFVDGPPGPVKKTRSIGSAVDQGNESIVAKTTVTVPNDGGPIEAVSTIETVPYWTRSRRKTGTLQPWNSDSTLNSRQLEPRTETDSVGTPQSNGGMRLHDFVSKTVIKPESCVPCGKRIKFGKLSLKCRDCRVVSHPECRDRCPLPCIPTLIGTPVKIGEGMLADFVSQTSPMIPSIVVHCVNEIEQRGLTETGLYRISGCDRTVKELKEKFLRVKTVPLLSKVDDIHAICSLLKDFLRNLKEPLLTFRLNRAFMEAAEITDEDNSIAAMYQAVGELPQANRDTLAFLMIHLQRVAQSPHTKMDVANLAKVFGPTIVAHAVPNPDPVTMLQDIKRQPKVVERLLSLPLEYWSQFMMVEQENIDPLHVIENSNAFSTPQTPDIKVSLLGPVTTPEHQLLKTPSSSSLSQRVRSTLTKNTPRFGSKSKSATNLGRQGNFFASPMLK

[7] = target: T3, Histone-lysine N-methyltransferase NSD2 (Homo sapiens, UniProt O96028); assay type: biochemical
T3 sequence (O96028 whole entry): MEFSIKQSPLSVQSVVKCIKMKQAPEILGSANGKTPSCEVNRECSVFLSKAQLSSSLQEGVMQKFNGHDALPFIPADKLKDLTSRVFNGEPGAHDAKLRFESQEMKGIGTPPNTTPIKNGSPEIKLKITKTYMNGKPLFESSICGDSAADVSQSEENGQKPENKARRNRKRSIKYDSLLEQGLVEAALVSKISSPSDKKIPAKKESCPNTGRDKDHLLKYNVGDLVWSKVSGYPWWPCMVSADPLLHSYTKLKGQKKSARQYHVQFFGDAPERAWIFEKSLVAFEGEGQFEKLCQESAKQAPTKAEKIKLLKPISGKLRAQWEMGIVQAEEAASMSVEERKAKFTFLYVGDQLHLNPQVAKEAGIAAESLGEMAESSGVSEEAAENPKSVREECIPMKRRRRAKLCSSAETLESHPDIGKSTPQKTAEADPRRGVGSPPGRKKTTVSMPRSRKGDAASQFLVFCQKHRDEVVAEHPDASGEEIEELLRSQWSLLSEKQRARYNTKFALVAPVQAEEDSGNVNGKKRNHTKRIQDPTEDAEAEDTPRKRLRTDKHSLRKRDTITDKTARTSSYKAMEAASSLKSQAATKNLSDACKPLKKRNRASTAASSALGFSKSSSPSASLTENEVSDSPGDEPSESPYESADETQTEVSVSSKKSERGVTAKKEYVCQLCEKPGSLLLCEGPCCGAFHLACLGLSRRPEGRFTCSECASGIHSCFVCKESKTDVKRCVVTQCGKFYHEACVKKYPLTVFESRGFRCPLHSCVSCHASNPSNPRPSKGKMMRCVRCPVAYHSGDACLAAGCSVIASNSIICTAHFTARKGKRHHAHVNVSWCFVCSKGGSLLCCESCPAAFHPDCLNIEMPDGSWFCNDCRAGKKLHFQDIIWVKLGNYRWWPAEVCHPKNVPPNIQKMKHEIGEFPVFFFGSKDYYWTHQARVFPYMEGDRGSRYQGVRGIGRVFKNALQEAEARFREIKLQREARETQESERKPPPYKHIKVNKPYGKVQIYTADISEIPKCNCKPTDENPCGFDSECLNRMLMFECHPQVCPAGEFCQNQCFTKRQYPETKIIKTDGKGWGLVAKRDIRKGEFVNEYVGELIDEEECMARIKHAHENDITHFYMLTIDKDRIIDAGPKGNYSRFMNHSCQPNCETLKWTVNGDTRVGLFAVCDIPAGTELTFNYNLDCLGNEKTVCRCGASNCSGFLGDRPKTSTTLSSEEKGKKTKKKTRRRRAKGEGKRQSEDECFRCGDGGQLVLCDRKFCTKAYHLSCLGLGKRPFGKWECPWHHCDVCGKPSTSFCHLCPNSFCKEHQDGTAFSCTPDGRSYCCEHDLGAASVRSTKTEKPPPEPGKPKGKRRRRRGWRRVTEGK

[8] = target: Large T antigen (Simian virus 40, UniProt P03070); assay type: functional, Betapolyomavirus macacae;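 note: Confirmatory-stage PubChem screen for compounds that inhibit SV40 T antigen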
Chain of Large T antigen (P03070 whole entry, the tested form may be a part): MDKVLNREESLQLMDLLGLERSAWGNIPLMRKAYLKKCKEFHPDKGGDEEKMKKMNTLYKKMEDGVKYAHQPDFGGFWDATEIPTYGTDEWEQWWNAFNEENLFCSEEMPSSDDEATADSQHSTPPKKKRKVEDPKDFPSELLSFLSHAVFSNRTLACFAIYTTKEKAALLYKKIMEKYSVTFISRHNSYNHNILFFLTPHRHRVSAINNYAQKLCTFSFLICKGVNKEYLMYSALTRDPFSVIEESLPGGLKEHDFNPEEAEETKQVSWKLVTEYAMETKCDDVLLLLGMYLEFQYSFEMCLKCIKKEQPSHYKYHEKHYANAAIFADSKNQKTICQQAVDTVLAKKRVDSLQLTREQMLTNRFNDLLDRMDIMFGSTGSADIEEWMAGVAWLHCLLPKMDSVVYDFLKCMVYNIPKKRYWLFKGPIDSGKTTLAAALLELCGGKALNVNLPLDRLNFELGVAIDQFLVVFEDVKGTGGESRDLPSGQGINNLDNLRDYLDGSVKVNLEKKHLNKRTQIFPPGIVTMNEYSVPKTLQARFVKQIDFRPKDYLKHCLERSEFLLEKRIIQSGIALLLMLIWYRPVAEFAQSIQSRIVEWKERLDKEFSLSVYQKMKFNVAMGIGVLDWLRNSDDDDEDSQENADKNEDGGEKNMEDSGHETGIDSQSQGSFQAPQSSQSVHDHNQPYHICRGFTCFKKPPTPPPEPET

[9] = inhibitors of HIV Env-driven cell fusion, dose response, cherry-pick (AID 652057); assay type: functional, cell-based
[10] = LGR2 antagonists, dose response, cell-based, HEK293, CRE-luciferase reporter, cherry pick, set 2 (AID 743343); assay type: functional;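 note: transfected cells were stimulated with diluted bursicon conditioned medium after compound addition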
[11] = inhibitors of clade B AD8 Env fusion, dose response, cell-based, cherry-pick (AID 652062); assay type: functional;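 note: luciferase signal from cell-cell fusion driven by HIV-1 clade B AD8 Env; potency is for inhibitors of fusion seen as a drop in luminescence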
[12] = MC4R antagonists, dose response, counter-screen for LGR2 antagonist project, cell-based, plate reader, cherry pick (AID 743444); assay type: functional;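 note: transfected HEK 293 cells stimulated with alpha-MSH peptide; potency of inhibitors of the alpha-MSH evoked signal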
[13] = off-target signal loss in HeLa-CEM21 co-culture – HeLa F-luc CTL cells, cherry-picked, counter-screen for HIV-1 Env fusion inhibitor project, dose response (AID 652040); assay type: functional, cell-based;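 note: potency for signal decrease marking cytotoxic or nonspecific inhibition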
[14] = inhibitors of intracellular T. cruzi replication, confirmation, NIH3T3 host cells, beta-gal luminescence (AID 2044); assay type: functional, cell-based;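 note: intracellular parasites grown in NIH/3T3 mouse fibroblasts as host cells; luminescent beta-galactosidase reporter signal from transgenic T. cruzi replicating inside host cells; inhibitors lower the luminescence signal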
[15] = target: Disintegrin and metalloproteinase domain-containing protein 17 (Homo sapiens, UniProt P78536); experiment: ADAM17 protease inhibitors, dose response, counter-screen for ADAM10 exosite inhibitor project, biochemical, quenched FRET substrate (AID 743253)
Chain of Disintegrin and metalloproteinase domain-containing protein 17 (P78536 whole entry, the tested form may be a part): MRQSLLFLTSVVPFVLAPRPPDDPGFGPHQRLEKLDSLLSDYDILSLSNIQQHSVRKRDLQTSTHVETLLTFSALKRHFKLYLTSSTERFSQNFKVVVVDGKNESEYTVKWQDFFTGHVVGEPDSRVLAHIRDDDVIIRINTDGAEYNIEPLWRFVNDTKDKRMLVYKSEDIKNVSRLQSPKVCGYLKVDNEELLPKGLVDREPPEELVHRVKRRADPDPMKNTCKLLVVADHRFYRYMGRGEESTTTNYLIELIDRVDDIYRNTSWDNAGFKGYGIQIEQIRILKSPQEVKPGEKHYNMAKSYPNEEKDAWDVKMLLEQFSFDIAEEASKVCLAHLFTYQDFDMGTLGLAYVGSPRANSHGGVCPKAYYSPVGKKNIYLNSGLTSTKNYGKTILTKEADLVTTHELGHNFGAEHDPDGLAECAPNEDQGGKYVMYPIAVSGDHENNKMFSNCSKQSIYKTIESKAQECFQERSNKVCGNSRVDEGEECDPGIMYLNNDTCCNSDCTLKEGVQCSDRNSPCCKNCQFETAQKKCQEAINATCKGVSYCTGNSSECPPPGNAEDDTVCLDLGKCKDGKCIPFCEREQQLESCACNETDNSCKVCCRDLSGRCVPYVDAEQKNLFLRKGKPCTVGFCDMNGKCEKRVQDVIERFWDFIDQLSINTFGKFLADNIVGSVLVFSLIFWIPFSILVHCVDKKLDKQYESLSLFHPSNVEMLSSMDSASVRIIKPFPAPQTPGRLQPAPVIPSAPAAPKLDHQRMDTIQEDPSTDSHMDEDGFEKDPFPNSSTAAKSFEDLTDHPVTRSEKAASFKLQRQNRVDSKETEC

[16] = cytotoxicity toward NIH3T3 fibroblasts, dose response, counter-screen, cell-based, ATP luminescence, mouse fibroblasts (AID 2010); assay type: functional;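 note: cells exposed to compound for about 90 hours before reading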
[17] = ADAM10 inhibitors, peptide cleavage, dose response, biochemical, QFRET (AID 743254);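 note: ADAM10 enzyme with the DM2 quenched FRET peptide as substrate; EDANS fluorescence gain as the protease cuts the substrate; inhibitor potency against ADAM10 proteolytic activity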
[18] = Vero cell cytotoxicity, dose response, cytotoxicity control for Vif-APOBEC3G degradation inhibitor project, Vero cells (AID 1117358); assay type: functional; conditions: Human immunodeficiency virus 1, Vero
[19] = target: T4, Sentrin-specific protease 8 (Homo sapiens, UniProt Q96LD8); assay type: functional
T4 sequence (Q96LD8 whole entry): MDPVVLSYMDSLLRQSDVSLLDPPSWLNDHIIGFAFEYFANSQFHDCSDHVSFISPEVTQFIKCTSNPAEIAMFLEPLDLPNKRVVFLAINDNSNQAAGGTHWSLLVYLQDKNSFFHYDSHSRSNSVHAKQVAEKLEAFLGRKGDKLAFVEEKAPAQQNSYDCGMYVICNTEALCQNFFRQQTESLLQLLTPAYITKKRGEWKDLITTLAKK

[20] = target: T5, Caspase-6 (Homo sapiens, UniProt P55212); experiment: human caspase-6 inhibitors, dose response, biochemical, VEID-R110 fluorescence, cherry-pick (AID 720632)
T5 sequence (P55212 whole entry): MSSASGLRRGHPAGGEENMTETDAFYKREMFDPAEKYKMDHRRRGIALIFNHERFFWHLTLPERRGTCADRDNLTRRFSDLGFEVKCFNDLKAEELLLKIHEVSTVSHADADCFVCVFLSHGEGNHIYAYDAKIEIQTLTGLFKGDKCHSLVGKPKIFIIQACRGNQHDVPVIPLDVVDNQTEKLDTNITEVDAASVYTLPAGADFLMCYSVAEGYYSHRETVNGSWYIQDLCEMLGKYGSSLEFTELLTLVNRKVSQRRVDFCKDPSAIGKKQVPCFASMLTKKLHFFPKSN

[21] = target: T4, Sentrin-specific protease 8; assay type: functional; remark: listed apart in the source

## CC1CCC(NC(=O)c2ccc(S(C)(=O)=O)cc2)CC1 (stereo not drawn)
[1]
  IC50: > 67.5 µM (inactive)
[2]
  EC50: > 67.5 µM (inactive)

## CN(C)c1ccc(/N=c2/sc3ccccc3n2C)cc1
[3]
  IC50: > 64 µM (inactive)
[4]
  IC50: 40.2 µM (active)
[5]
  IC50: 23.9 µM (active)
[6]
  IC50: 18.9 µM (active)
[7]
  AC50: 10.4 µM (active)
[8]
  IC50: 11.4 µM (active)

## Cc1cc(C(=O)CN2C(=O)c3ccccc3S2(=O)=O)c(C)n1C(C)C
[9]
  AC50: 3.93 µM (active)
[10]
  AC50: 2.48 µM (active)
[11]
  AC50: 7.58 µM (active)
[12]
  AC50: 2.08 µM (active)
[13]
  AC50: 3.75 µM (active)

## Cc1ccc(C(=O)Nc2ccccc2-c2ccccc2)cc1S(=O)(=O)Nc1cccc(C)c1C
[14]
  EC50: 1.57 µM (active)
[15]
  IC50: > 69.5 µM (inactive)
[16]
  EC50: > 60 µM (not active)
[17]
  IC50: > 69.5 µM (inactive)

## COc1ccc(S(=O)(=O)N(C)C[C@@H]2OCCCC[C@H](C)Oc3ccc(NC(=O)Nc4ccc(C(F)(F)F)cc4)cc3C(=O)N([C@H](C)CO)C[C@H]2C)cc1
[15]
  IC50: > 69.5 µM (inactive)
[17]
  IC50: > 69.5 µM (inactive)

## COc1ccc(CCNC(=O)CSc2nc(-c3ccco3)cc(C(F)(F)F)n2)cc1
[18]
  CC50: > 40 µM (active)

## CC1Cc2ccccc2N1C(=O)COC(=O)c1ccc([N+](=O)[O-])o1 (stereo not drawn)
[19]
  IC50: 8.67 µM (active)
[20]
  AC50: 13 µM (active)
[21]
  IC50: 3.78 µM (active)
